Assay results published in US20240124455A1, “TRICYCLIC COMPOUNDS AS ANTICANCER AGENTS” (JINGRUI BIOPHARMA CO., LTD., priority 2021, published 2024).

Key:
MV-4-11 = assay: Cell proliferation assay (Cell Titer-Glo); assay type: cell-based; conditions: MV-4-11 cells, compound treatment 72 h, CellTiter-Glo
Protocol: In order to evaluate the activity of the compound on cells, the Cell Titer-Glo assay was used for detection. The cells were incubated in a 37° C. incubator and treated with compounds for 72 hours. At the end of the reaction, the number of living cells in the culture is measured by quantitative determination of ATP. ATP is an indicator of the metabolism of living cells. With Cell Titer-Glo, the luminescence signal produced by cell lysis is proportional to the amount of ATP present, and the amount of ATP is directly proportional to the number of cells in the culture. These signal ratios reflect the cell activity of the compound at that concentration in the well under this condition. • (1) Seeding cells • Trypsinize cells and count cell density with the automated cell counter. • Dilute cell suspension to required density according to seeding density. • Seed 100 ul cells into 96-well plate in growth medium according to the plate map. Medium only is used as background control (Min). • Incubate at 37° C., 5% CO2 overnight. • (2) Compound treatment • Make 200× compound solution in DMSO. • Dilute compounds with growth medium to 3× final concentration by addition of 3 ul 200× compounds to 197 ul growth medium. • Add 50 ul diluted compounds to cells and incubate at 37° C., 5% CO2 for 72 h. • (3) Measurement • Equilibrate the assay plate to room temperature prior to measurement. • Add 40 ul of CellTiter-Glo® Reagent into each well. • Mix contents for 2 minutes on an orbital shaker to induce cell lysis. • Incubate at room temperature for 60 minutes to stabilize luminescent signal. • Record luminescence on Envision. • (4) Data analysis • (1) Using GraphPad Prism 5. • (2) % Inh=(Max signal−Compound signal)/(Max signal−Min signal)×100. • (3) Max signal was obtained from the action of DMSO. • (4) Min signal was obtained from the action of medium only.

BRD4 (BD1) = biological target: T1, BRD4 (BD1) (Homo sapiens, UniProt O60885); assay: BRD4 (BD1) binding assay (HTRF); conditions: BRD4 (D1) with GST tag and biotin-labeled acetylated peptide
T1 construct: purchased Reaction Biology Company RD-11-157
Protocol: The BRD4 (BD1) biochemical binding assay was carried out by Sundia MediTech Co., Ltd. • Materials and suppliers: • BRD4(D1): Reaction Biology Company; catalog #: RD-11-157; batch #1319 • Positive control compound: AZD5153; Selleck, catalog #, S8344, batch #, 1 • Peptide: GL China; catalog #329934; batch #, P171229-JQ329934 • DMSO: Sigma; catalog #, D8418-1L; batch #, SHBG3288V • OptiPlate-384: PerkinElmer; catalog #6007270, batch #, 8240-17211 • Instruments: • Centrifuge (manufacturer: Eppendorf, model: 5430) • Microplate reader (manufacturer: Perkin Elmer, model: EnVision) • Sonic pipetting system (manufacturer: Labcyte, model: Echo® 550) • In the assay, the HTRF method uses an anti-GST antibody with a cryptate chelate-labeled europium element as the donor, and the d2 or XL665-labeled streptavidin (having high affinity with biotin) as the acceptor to study the interaction between BRD4 (D1) with GST tag and biotin-labeled acetylated peptide. When the donor and acceptor are close to each other due to the binding of BRD4 (D1) to the biotin-labeled peptide, the excitation of the donor triggers fluorescence resonance energy transfer (FRET) to the acceptor, which then emits fluorescence at a specific wavelength (665 nm). • General assay procedure: 20 nL of compound solution was transferred to the 384-well plate by Labcyte Echo® 550 liquid handler, and 5 μL of BRD4 (BD1) solution from Reaction Biology Company, RD-11-157, or the assay buffer was added to each well. After centrifuge for 1 minute and incubating 15 minutes at rt, the 5 μL peptide (GL China, Catalog #329934, Batch, P171229-JQ329934) was added to each well. After centrifuge for 1 minute at 1000 rpm, 10 μL detect solution was added to each well. After incubating for 60 minutes, centrifuging 1 minute, the signals were measured by Microplate reader. Data analysis: The inhibition percentage in the presence of the compound was calculated based on the following formula:
% Inhibition=(Signal_max−Signal sample/Signal_max−Signal_min)×100
Fitting the data in GrphaPad Prism V5.0 software with log(inhibitor) vs. response-Variable slope, the IC50 was obtained.

Row | SMILES | IC50 (MV-4-11; Homo sapiens, MV4-11, 72 h) [nM] | IC50 (BRD4 (BD1)) [nM] | IC50 (MV-4-11) [nM]
1 | Cc1nnn(C)c1-c1cnc2c3nn(C)c(C(C)(C)O)c3n(C(c3ccccc3)C3CCOCC3)c2c1 (racemic) [Example 2, 2-(6-(1,4-Dimethyl-1H-1,2,3-triazol-5-yl)-2-methyl-4-(phenyl(tetrahydro-2H-pyran-4-yl)methyl)-2,4-dihydropyrazolo[3′,4′:4,5]pyrrolo[3,2-b]pyridin-3-yl)propan-2-ol] | 1.48 | 0.3 | 
2 | Cc1nnn(C)c1-c1cnc2c3nn(C)c(C(C)(C)O)c3n(C(c3ccccc3)C3CCOCC3)c2c1 (single isomer, unassigned) [Example 4, 2-(6-(1,4-Dimethyl-1H-1,2,3-triazol-5-yl)-2-methyl-4-(phenyl(tetrahydro-2H-pyran-4-yl)methyl)-2,4-dihydropyrazolo[3′,4′:4,5]pyrrolo[3,2-b]pyridin-3-yl)propan-2-ol] |  | 0.18 | 1.28
3 | [2H]C([2H])([2H])c1nnn(C)c1-c1cnc2c3nn(C([2H])([2H])[2H])c(C(C)(C)O)c3n(C(c3ncccc3F)C3CCOCC3)c2c1 (single isomer, unassigned) [Example 23, 2-(4-((3-Fluoropyridin-2-yl)(tetrahydro-2H-pyran-4-yl)methyl)-2-(methyl-d3)-6-(1-methyl-4-(methyl-d3)-1H-1,2,3-triazol-5-yl)-2,4-dihydropyrazolo[3′,4′:4,5]pyrrolo[3,2-b]pyridin-3-yl)propan-2-ol] |  | 4.4 | 66.8
4 | Cc1nnn(C)c1-c1cnc2c3nn(C)c(C(C)(C)O)c3n(C(c3ncccc3F)C3CCOCC3)c2c1 (racemic) [Example 10, 2-(6-(1,4-Dimethyl-1H-1,2,3-triazol-5-yl)-4-((3-fluoropyridin-2-yl)(tetrahydro-2H-pyran-4-yl)methyl)-2-methyl-2,4-dihydropyrazolo[3′,4′:4,5]pyrrolo[3,2-b]pyridin-3-yl)propan-2-ol] | 3.42 | 0.61 | 
5 | [2H]C([2H])([2H])c1nnn(C)c1-c1cnc2c3nn(C)c(C(=O)OC)c3n(C(c3ncccc3F)C3CCOCC3)c2c1 (stereo not drawn) [Example 17, Methyl 4-((3-fluoropyridin-2-yl)(tetrahydro-2H-pyran-4-yl)methyl)-2-methyl-6-(1-methyl-4-(methyl-d3)-1H-1,2,3-triazol-5-yl)-2,4-dihydropyrazolo[3′,4′:4,5]pyrrolo[3,2-b]pyridine-3-carboxylate] | 3.3 | 0.59 | 
6 | Cc1nnn(C)c1-c1cnc2c3nn(C)c(C(C)(C)O)c3n([C@@H](c3ccccn3)C3CCOCC3)c2c1 [Example 7] | 139 | 8.4 | 
7 | COC(=O)c1c2c(nn1C)c1ncc(-c3c(C)nnn3C)cc1n2C(c1ncccc1F)C1CCOCC1 (stereo not drawn) [Example 9, Methyl 6-(1,4-dimethyl-1H-1,2,3-triazol-5-yl)-4-((3-fluoropyridin-2-yl)(tetrahydro-2H-pyran-4-yl)methyl)-2-methyl-2,4-dihydropyrazolo[3′,4′:4,5]pyrrolo[3,2-b]pyridine-3-carboxylate] | 1.52 | 0.51 | 
8 | [2H]C([2H])([2H])c1nnn(C)c1-c1cnc2c3nn(C)c(C(C)(C)O)c3n(C(c3ncccc3F)C3CCOCC3)c2c1 (racemic) [Example 18, 2-(4-((3-Fluoropyridin-2-yl)(tetrahydro-2H-pyran-4-yl)methyl)-2-methyl-6-(1-methyl-4-(methyl-d3)-1H-1,2,3-triazol-5-yl)-2,4-dihydropyrazolo[3′,4′:4,5]pyrrolo[3,2-b]pyridin-3-yl)propan-2-ol] |  | 0.52 | 1.94
9 | [2H]C([2H])([2H])n1nc2c3ncc(-c4c(C)nnn4C)cc3n(C(c3ncccc3F)C3CCOCC3)c2c1C(C)(C)O (single isomer, unassigned) [Example 16, 2-(6-(1,4-Dimethyl-1H-1,2,3-triazol-5-yl)-4-((3-fluoropyridin-2-yl)(tetrahydro-2H-pyran-4-yl)methyl)-2-(methyl-d3)-2,4-dihydropyrazolo[3′,4′:4,5]pyrrolo[3,2-b]pyridin-3-yl)propan-2-ol] |  | 0.18 | 0.49
10 | [2H]C([2H])([2H])c1nnn(C)c1-c1cnc2c3nn(C)c(C(C)(C)O)c3n(C(c3ncccc3F)C3CCOCC3)c2c1 (single isomer, unassigned) [Example 20, 2-(4-((3-Fluoropyridin-2-yl)(tetrahydro-2H-pyran-4-yl)methyl)-2-methyl-6-(1-methyl-4-(methyl-d3)-1H-1,2,3-triazol-5-yl)-2,4-dihydropyrazolo[3′,4′:4,5]pyrrolo[3,2-b]pyridin-3-yl)propan-2-ol] |  | 0.17 | 0.81
11 | [2H]C([2H])([2H])c1nnn(C)c1-c1cnc2c3nn(C([2H])([2H])[2H])c(C(C)(C)O)c3n(C(c3ncccc3F)C3CCOCC3)c2c1 (racemic) [Example 22, 2-(4-((3-Fluoropyridin-2-yl)(tetrahydro-2H-pyran-4-yl)methyl)-2-(methyl-d3)-6-(1-methyl-4-(methyl-d3)-1H-1,2,3-triazol-5-yl)-2,4-dihydropyrazolo[3′,4′:4,5]pyrrolo[3,2-b]pyridin-3-yl)propan-2-ol] |  | 0.34 | 1.4
12 | Cc1nnn(C)c1-c1cnc2c3nn(C)c(C(C)(C)O)c3n(C(c3ncccc3F)C3CCOCC3)c2c1 (single isomer, unassigned) [Example 11, 2-(6-(1,4-Dimethyl-1H-1,2,3-triazol-5-yl)-4-((3-fluoropyridin-2-yl)(tetrahydro-2H-pyran-4-yl)methyl)-2-methyl-2,4-dihydropyrazolo[3′,4′:4,5]pyrrolo[3,2-b]pyridin-3-yl)propan-2-ol] |  | 6.8 | 63.3
13 | Cc1nnn(C)c1-c1cnc2c3nn(C)c(C(C)(C)O)c3n(C(c3ccccc3)C3CCOCC3)c2c1 (single isomer, unassigned) [Example 3, 2-(6-(1,4-Dimethyl-1H-1,2,3-triazol-5-yl)-2-methyl-4-(phenyl(tetrahydro-2H-pyran-4-yl)methyl)-2,4-dihydropyrazolo[3′,4′:4,5]pyrrolo[3,2-b]pyridin-3-yl)propan-2-ol] |  | 1.8 | 36.9
14 | Cc1nnn(C)c1-c1cnc2c3nn(C)c(C(C)(C)O)c3n(C(c3ncccc3F)C3CCOCC3)c2c1 (single isomer, unassigned) [Example 12, 2-(6-(1,4-Dimethyl-1H-1,2,3-triazol-5-yl)-4-((3-fluoropyridin-2-yl)(tetrahydro-2H-pyran-4-yl)methyl)-2-methyl-2,4-dihydropyrazolo[3′,4′:4,5]pyrrolo[3,2-b]pyridin-3-yl)propan-2-ol] |  | 0.19 | 0.52
15 | [2H]C([2H])([2H])c1nnn(C)c1-c1cnc2c3nn(C([2H])([2H])[2H])c(C(C)(C)O)c3n(C(c3ncccc3F)C3CCOCC3)c2c1 (single isomer, unassigned) [Example 24, 2-(4-((3-Fluoropyridin-2-yl)(tetrahydro-2H-pyran-4-yl)methyl)-2-(methyl-d3)-6-(1-methyl-4-(methyl-d3)-1H-1,2,3-triazol-5-yl)-2,4-dihydropyrazolo[3′,4′:4,5]pyrrolo[3,2-b]pyridin-3-yl)propan-2-ol] |  | 0.17 | 0.47
